This is an account of results in patent publication US7304084B2, “6-[(4,5-Dihydro-1H-imidazol-2-yl)amino]-7-methyl-1H-benzimidazole-4-carbonitrile and its preferred salt” (The Board of Regents of the University of Nebraska, priority 2003, dated 2007).

The nature of series [1]: Solubility in water at ambient temperature (saturated solution, supernatant by quantitative HPLC). Type of series: physicochemical. As to the method: One such technique is to prepare a saturated solution of the salt form by shaking a suspension of the salt form in water, until a saturated solution is obtained. The saturated solution is then centrifuged and the concentration of the supernatant is determined by quantitative HPLC analysis. A suitable HPLC method is described in Example 1.

The nature of series [2]: Ames Test dose/response studies. The series is classed as cell-based. The conditions noted are these: impurity (2) present in compound (1) and its various salt forms. An excerpt: [drawing 10] is produced in pharmaceutically unacceptable levels using these previous methods. Based on dose/response studies using an Ames Test, the mutagenic impurity (2) is shown to elicit a positive response when present at level about 1 ppm (parts per million) in 6-[(4,5-Dihydro-1H-imidazol-2-yl)amino-]-7-methyl-1H-benzimidazole-4-carbonitrile (1) and its various salt forms. Low levels of this phenazine impurity can be detected by those methods well known in the art such as HPLC with fluorescence detection. Suitable examples of such assays are described in Examples 1, 2, and 3 herein. A suitable preparation of labeled ^15N4-2,3,7-Triamino-4,6-dimethyl-1,9-phenazinedicarbonitrile is described in Example 4 herein. A suitable preparation of non-labeled 2,3,7-Triamino-4,6-dimethyl-1,9-phenazinedicarbonitrile is described in Example 19 herein. III. Methods of Making Intermediate of Formula (II)

Structures are written as SMILES. ≈ marks a conversion by molar mass, not a printed value. Structures can show the parent of a compound that is named as a salt. Where two headings read alike, the source gives them in different places.

For the molecule `CC(=O)O.Cc1c(NC2=NCCN2)cc(C#N)c2nc[nH]c12` [Acetate Salt Form, 6-[(4,5-Dihydro-1H-imidazol-2-yl)amino-]-7-methyl-1H-benzimidazole-4-carbonitrile, Acetic Acid Salt (1:1)], the solubility in water entry in series [1] is recorded as “about 135 mg/mL”. By solubility is commonly meant the concentration that dissolves in the medium under given conditions. High values mean a readily soluble substance, low ones a poorly soluble substance. Molecule `Cc1c(N=C2NCCN2)cc(C#N)c2[nH]cnc12` [Free Base Form, 6-[(4,5-Dihydro-1H-imidazol-2-yl)amino-]-7-methyl-1H-benzimidazole-4-carbonitrile] came in with a solubility in series [1] (water, thermodynamic from solid) of around 400 µg/mL (≈ 1660 µM). `Cc1c(NC2=NCCN2)cc(C#N)c2nc[nH]c12` [Sulfate Salt Form, 6-[(4,5-Dihydro-1H-imidazol-2-yl)amino-]-7-methyl-1H-benzimidazole-4-carbonitrile, reference compound]: the solubility in water result in series [1] (water, ambient temperature) is recorded as “about 4 mg/mL”.

Take `Cc1c(N)cc(C#N)c2nc3c(C#N)c(N)c(N)c(C)c3nc12` [compound 2, 2,3,7-triamino-4,6-dimethyl-1,9-phenazinedicarbonitrile]: in series [2], the “level of the impurity at which a positive response is elicited in the Ames Test” value was “about 1 ppm”.
